Assay results: patent US20240082416A1, “AMATOXIN ANALOGS AND USES THEREOF” (THE UNIVERSITY OF BRITISH COLUMBIA, priority 2020, published 2024)
“And” between values parts separate entries of the source, which are not always exact repeats. Identical values can stand only once. Starred links: 1 amine or outer side, 2 acyl side, 3 side chain; linkers in the order of their positions; H or OH if unused. Positions of bridges follow the written chain, without caps; N, C: chain ends. Non-standard residues stand in square brackets, D forms with d. Residues, ends and D or L forms follow the SMILES beside them. Trp(2-yl) = O=C([C@H](Cc1c([*:3])[nH]c2ccccc12)N[*:1])[*:2]; Pro(trans-4-guanidino) = N=C(N)N[C@H]1CN[C@H](C(=O)O)C1; Pro(4R-SH) = O=C([C@@H]1C[C@@H](S[*:3])CN1[*:1])[*:2]; Ile(4R-OH,5-OH) = C[C@H]([C@H](N)C(=O)O)[C@@H](O)CO; Pro(4R-NH2) = N[C@H]1CN[C@H](C(=O)O)C1

Columns and labels:
[1] = target: T1, Pol II (Homo sapiens, UniProt P24928); assay: In vitro transcription runoff assay using HeLaScribe nuclear extract; assay type: biochemical; conditions: for Transcription activity E (%): mean ± standard deviation
T1 construct: HeLaScribe® nuclear extract containing Pol II and all other transcription factors; purchased Promega; host or cells: HeLa nuclear extract (endogenous protein)
Source text: (h) In vitro transcription assay of synthetic amanitins containing analogs of Hyp: Primers were purchased from IDT via standard phosphoramidite chemistry. dNTP and rNTP were purchased from Thermofisher. GoTaq polymerase and HeLaScribe*Nuclear Extract in vitro Transcription System was purchased from Promega. Taq polymerase was purchased from NEB. [^32P] α-dGTP (3000 Ci/mmol 10 mCi/ml EasyTide) and [^32P] α-GTP (3000 Ci/mmol 10 mCi/ml EasyTide) were purchased from Perkin Elmer. QIAquick PCR purifcation kit was purchased from Qiagen. AcGFP1-N1 was a gift (Addgene plasmid #54705; http://n2t.net/addgene:54705; RRID:Addgene_54705). DNA Primer sequences were:
The DNA template for transcription runoff was synthesized by PCR with template pAcGFP-N1, and primers P1 and P2. To a final volume of 20 μL, 1 x GoTaq Buffer, 250 μM of each dNTP, 500 nM of each primers P1 and P2, […] pAcGFP-N1 and 0.05 U/μL GoTaq were employed to thermocycle for 30 cycles (30 s at 95° C., 30 s at 50° C. and 60 s at 72° C., Bio-Rad). A 1 μL aliquot of the amplified solution was resolved with 6×DNA loading dye in a 1% agarose gel containing […] and then visualized using GelDoc XR imager (Bio-Rad). Purification was completed via QIAquick PCR purification kit (Qiagen). The radioactive chromatographic standard was synthesized by PCR with template pAcGFP-N1, and primers P3 and P4. To a final volume of 50 μL, 1 x Thermopol Buffer, 200 μM of each dNTP, 500 nM of each primers P3 and P4, 10 pg/μL pAcGFP-N1 and 0.02 U/μL Vent polymerase, 1 μL [^32P] α-dGTP were employed to thermocycle for 30 cycles (30 s at 95° C., 30 s at 62° C. and 30 s at 72° C., Bio-Rad). A 1 μL aliquot of the amplified solution was resolved with 6×DNA loading dye in 8% denaturing PAGE and then visualized by autoradiography via the Typhoon 9200 imager (Molecular namics-Amersham-GE). Purification was completed via QIAquick PCR purification kit (Qiagen). The transcription runoff assay was modified from HeLaScribe® Nuclear Extract in vitro Transcription System (Promega). […]. The pellet was resolved by 8% denaturing PAGE and then visualized by autoradiography via the Typhoon 9200 imager (Molecular dynamics-Amersham-GE). Dosimetry was calculated by ImageJ, and the 3 parameter logistic fit was completed by Origin 2019 (OriginLab). […]
All data were presented in mean±standard deviation (n=3).

[2] = system: CHO cells; assay: Viability assay against CHO cells (MTT colorimetric assay); assay type: cell-based, Chinese hamster; conditions: 72 h, replicates n = 1, 2, 3
[3] = as above; assay type: cell-based, Chinese hamster; conditions: Chinese hamster, CHO cells, 72 h, replicates n = 1, 2, 3, read-out: % viable cells; for viability at 72 h, 1e-05 M: 1e-005 M; for viability at 72 h, 1.25e-06 M: 1.25e-006 M; for viability at 72 h, 1.56e-07 M: 1.56e-007 M; for viability at 72 h, 2e-05 M: 2e-005 M; for viability at 72 h, 2.5e-06 M: 2.5e-006 M; for viability at 72 h, 3.125e-07 M: 3.125e-007 M; for viability at 72 h, 5e-06 M: 5e-006 M; for viability at 72 h, 6.25e-07 M: 6.25e-007 M; for viability at 72 h, 7.8e-08 M: 7.8e-008 M
[4] = IC50 (nM), Table 11, 3 parameter logistic fit
[5] = IC50 (nM), Table 12, n = 3, high values estimated from activity at [I]=1.0 μM

Structure (SMILES) | Transcription activity E (%) ([1]; 30 nM) | Transcription activity E (%) ([1]; 100 nM) | Transcription activity E (%) ([1]; 300 nM) | Transcription activity E (%) ([1]; 1000 nM) | Transcription activity E (%) ([1]; 3000 nM) | IC50 ([1]; IC50) [nM] | IC50 [1, 4] [nM] | IC50 [1, 5] [nM] | viability at 72 h, 1e-05 M [3] [%] | viability at 72 h, 1.25e-06 M [3] [%] | viability at 72 h, 1.56e-07 M [3] [%] | viability at 72 h, 2e-05 M [3] [%] | viability at 72 h, 2.5e-06 M [3] [%] | viability at 72 h, 3.125e-07 M [3] [%] | viability at 72 h, 5e-06 M [3] [%] | viability at 72 h, 6.25e-07 M [3] [%] | viability at 72 h, 7.8e-08 M [3] [%] | also measured
CC[C@H](C)[C@@H]1NC(=O)CNC(=O)[C@@H]2Cc3c([nH]c4ccccc34)SC[C@H](NC(=O)CNC1=O)C(=O)N[C@@H](CC(N)=O)C(=O)N1C[C@H](N)C[C@H]1C(=O)N[C@@H]([C@@H](C)[C@@H](O)CO)C(=O)N2 [Compound 6, NH2-Pro-amanitin] (cyclo(CN[Pro(4R-NH2)][Ile(4R-OH,5-OH)][Trp(2-yl)]GIG); thioether 1-5) | 91.7 ± 9.3 | 82.3 ± 12.8 | 55.0 ± 23.6 | 38.6 ± 18.3 | 19.8 ± 9.9 | 550 ± 90 | 550 ± 90 | 550 ± 90 | 91 | 95 | 95 | 92 | 86 | 86 | 87 | 92 | 96 | % viable cells ([2]; 1e-005 M, listed as NH2-Pro-amanitin (6)): 81% and 83%; % viable cells ([2]; 1.25e-006 M, listed as NH2-Pro-amanitin (6)): 88%; % viable cells ([2]; 1.56e-007 M, listed as NH2-Pro-amanitin (6)): 97%; % viable cells ([2]; 2e-005 M, listed as NH2-Pro-amanitin (6)): 89% and 85%; % viable cells ([2]; 2.5e-006 M, listed as NH2-Pro-amanitin (6)): 85% and 82%; % viable cells ([2]; 5e-006 M, listed as NH2-Pro-amanitin (6)): 79% and 84%; % viable cells ([2]; 6.25e-007 M, listed as NH2-Pro-amanitin (6)): 85%; % viable cells ([2]; 7.8e-008 M, listed as NH2-Pro-amanitin (6)): 89%
CC[C@H](C)[C@@H]1NC(=O)CNC(=O)[C@@H]2Cc3c([nH]c4ccccc34)SC[C@H](NC(=O)CNC1=O)C(=O)N[C@@H](CC(N)=O)C(=O)N1C[C@H](S)C[C@H]1C(=O)N[C@@H]([C@@H](C)[C@@H](O)CO)C(=O)N2 [Compound 5, SH-Pro-amanitin] (cyclo(CN[Pro(4R-SH)][Ile(4R-OH,5-OH)][Trp(2-yl)]GIG); thioether 1-5) | 99.6 ± 11.6 | 91.2 ± 18.5 | 71.2 ±19.0 | 50.3 ± 20.8 | – | 910 ± 230 | 910 ± 330 | 910 ± 330 | 94 | 93 | 93 | 106 | 91 | 94 | 100 | 98 | 94 | Transcription activity E (%) ([1]; 10 nM): 78.5 ± 26.6%; % viable cells ([2]; 1e-005 M, listed as SH-Pro-amanitin (5)): 95%; % viable cells ([2]; 1.25e-006 M, listed as SH-Pro-amanitin (5)): 92%; % viable cells ([2]; 2e-005 M, listed as SH-Pro-amanitin (5)): 97%; % viable cells ([2]; 2.5e-006 M, listed as SH-Pro-amanitin (5)): 99%; % viable cells ([2]; 3.125e-007 M, listed as SH-Pro-amanitin (5)): 90%; % viable cells ([2]; 5e-006 M, listed as SH-Pro-amanitin (5)): 90% and 96%; % viable cells ([2]; 6.25e-007 M, listed as SH-Pro-amanitin (5)): 92% and 95%; % viable cells ([2]; 7.8e-008 M, listed as SH-Pro-amanitin (5)): 89%
CC[C@H](C)[C@@H]1NC(=O)CNC(=O)[C@@H]2Cc3c([nH]c4ccccc34)SC[C@H](NC(=O)CNC1=O)C(=O)N[C@@H](CC(N)=O)C(=O)N1C[C@H](NC(=N)N)C[C@H]1C(=O)N[C@@H]([C@@H](C)[C@@H](O)CO)C(=O)N2 [Compound 7, Gdn-Pro-amanitin] (cyclo(CN[Pro(trans-4-guanidino)][Ile(4R-OH,5-OH)][Trp(2-yl)]GIG); thioether 1-5) | 77.3 ± 9.0 | 76.1 ± 13.2 | 56.6 ± 11.6 | 31.3 ± 5.8 | 14.1 ± 7.1 | ~400 | 410 ± 80 | 410 ± 80 | 100 | 89 | 88 | 99 | 90 | 85 | 93 | 88 | 96 | IC50 fold higher than that of the natural product ([1]; vs α-amanitin): approximately 50 fold; % viable cells ([2]; 1e-005 M, listed as Gdn-Pro-amanitin (7)): 102%; % viable cells ([2]; 1.25e-006 M, listed as Gdn-Pro-amanitin (7)): 86%; % viable cells ([2]; 1.56e-007 M, listed as Gdn-Pro-amanitin (7)): 91% and 80%; % viable cells ([2]; 2e-005 M, listed as Gdn-Pro-amanitin (7)): 101%; % viable cells ([2]; 2.5e-006 M, listed as Gdn-Pro-amanitin (7)): 82%; % viable cells ([2]; 3.125e-007 M, listed as Gdn-Pro-amanitin (7)): 86%; % viable cells ([2]; 6.25e-007 M, listed as Gdn-Pro-amanitin (7)): 83% and 84%; % viable cells ([2]; 7.8e-008 M, listed as Gdn-Pro-amanitin (7)): 92%
